In one series the test system is human INHBE. The series is described as follows: Multi-concentration-point inhibitory activity against INHBE in human hepatoma cell line (Huh7), qPCR. Format: cell-based. To be noted: for Remaining percentage of target gene mRNA expression (Huh7) (mean, %): Huh7, 24 h; for IC50: Huh7, INHBE mRNA, 24 h. From the text:
(§1) After the Q-PCR assay was completed, the corresponding Ct values were obtained based on the threshold automatically set by the system. The expression of a certain gene can be relatively quantified by comparing the Ct values. Comparing Ct refers to calculating the differences in gene expression by the differences from the Ct value of the internal reference gene, which is also referred to as 2-ΔΔCt, where ΔΔCt = [(Ct target gene in experimental group - Ct internal reference in experimental group) - (Ct target gene in control group - Ct internal reference in control group)]. Inhibition rate (%) = (1 - remaining level of target gene expression) × 100%.
(§2) The results are expressed relative to the remaining percentage of human INHBE mRNA expression in cells treated with the siRNA. The IC50 value corresponds to the concentration of the siRNA used when the remaining percentage of INHBE mRNA expression is 50%.
(§3) 24 h prior to transfection, Huh7 cells were seeded into a 96-well plate at about 15,000 cells/well, with each well containing 100 µL of a culture medium. The cells were transfected with the samples using Lipofectamine RNAi MAX (ThermoFisher, 13778150) following the instruction manual of the product, with the final concentration gradients of the samples for transfection being 20 nM, 4 nM, 0.8 nM, 0.16 nM, 0.032 nM, 0.0064 nM, and 0.00128 nM. After 24 h of treatment, total cellular RNA extraction was performed using a high-throughput cellular RNA extraction kit (FG0417-L/FG0418-XL, magnetic bead method), followed by an RNA reverse transcription experiment (Takara, RR037A) and a quantitative real-time PCR (Thermo, 4444557) assay. The mRNA level of human INHBE was determined and calibrated on the basis of the GAPDH internal reference gene level.
The instruments, primer information, and result analysis method involved in this experiment were used with reference to Example 4.
On the technique in general: Real-time PCR tracks product formation cycle by cycle.

The next series concerns monkey INHBE. The series is described as follows: Multi-concentration-point inhibitory activity against INHBE in primary monkey hepatocytes (PCHs), qPCR. Format: cell-based. The note with it: 24 h; for IC50: PCH, monkey INHBE mRNA.
From the text: as §1, §2
as §3, with “PCH” for “Huh7”, “30,000” for “15,000”, “monkey” for “human”
In the real-time quantitative PCR assay, a probe Q-PCR assay was used. Table 15. Taqman primer information
The result analysis method and calculation method for the remaining percentage of the target mRNA expression were the same as those in Example 4.

In the case of “TJR102152: siRNA conjugate (Tables 14, 16); SS SEQ ID NO: 245, AS SEQ ID NO: 269 (sense UAAUAAUACUAACAUGUUA; antisense UAACAUGUUAGUAUUAUUAUG; conjugate ligand attached, 2'-OMe/2'-F pattern not given here)”, the “Remaining percentage of target gene mRNA expression (Huh7) (mean, %)” value (shortened to “Remaining percentage … (Huh7) (mean, %)”) amounted to 108.45% with human INHBE (0.00128 (nM per method)); 109.51% in the series with human INHBE (0.0064 (nM per method)); 98.76% in the series with human INHBE (0.032 (nM per method)); 76.27% in the series on human INHBE (0.16 (nM per method)); 51.25% in the series on human INHBE (0.8 (nM per method)); 37.74% in the series on human INHBE (4 (nM per method)). The “Remaining percentage … (Huh7) (mean, %)” value with human INHBE (20 (nM per method)) stood at 25.82%. The figures for the half-inhibitory concentration (IC50) with human INHBE and with monkey INHBE were 0.92 nM and 0.0302 nM, respectively. Further, the “Remaining percentage of target gene mRNA expression (PCH) (mean, %)” value (“Remaining percentage … (PCH) (mean, %)” for short) with monkey INHBE (0.00128 (nM per method)) was 104.56%; in the series with monkey INHBE (0.0064 (nM per method)), 77.88%; in the series with monkey INHBE (0.032 (nM per method)) it was 49.77%; with monkey INHBE (0.16 (nM per method)), 43.37%; with monkey INHBE (0.8 (nM per method)), 49.75%; in the series with monkey INHBE (4 (nM per method)), 46.38%. The “Remaining percentage … (PCH) (mean, %)” value in the series on monkey INHBE (20 (nM per method)) is recorded as 39.63%.
“TJR102154: siRNA conjugate (Tables 14, 16); SS SEQ ID NO: 243, AS SEQ ID NO: 267 (sense UCAAAGCUAUUUUCAUAAU; antisense AUUAUGAAAAUAGCUUUGACU; conjugate ligand attached, 2'-OMe/2'-F pattern not given here)”: the “Remaining percentage … (Huh7) (mean, %)” value in the series with human INHBE (0.00128 (nM per method)) is listed as 103.41%; in the series with human INHBE (0.0064 (nM per method)) it was 100.81%; in the series on human INHBE (0.032 (nM per method)), 91.17%; with human INHBE (0.16 (nM per method)) it was 50.85%; in the series on human INHBE (0.8 (nM per method)), 32.23%; in the series on human INHBE (4 (nM per method)) it was 30.29%. Besides, in the series with human INHBE (20 (nM per method)), the “Remaining percentage … (Huh7) (mean, %)” value stood at 20.46%. The IC50 (as a rule, the concentration that gives 50% inhibition) is 0.176 nM in the series on human INHBE and 0.04 nM in the series with monkey INHBE. Moreover, the “Remaining percentage … (PCH) (mean, %)” value with monkey INHBE (0.00128 (nM per method)) was determined as 85.05%; with monkey INHBE (0.0064 (nM per method)), 96.98%; with monkey INHBE (0.032 (nM per method)) it was 72.01%; with monkey INHBE (0.16 (nM per method)) it was 50.20%; in the series on monkey INHBE (0.8 (nM per method)) it was 47.38%; in the series on monkey INHBE (4 (nM per method)) it was 51.47%. For the same substance, in the series on monkey INHBE (20 (nM per method)), the “Remaining percentage … (PCH) (mean, %)” value was determined as 58.66%.

For the origin of these results see patent EP4674965A1, “SIRNA TARGETING INHIBIN ?E, SIRNA CONJUGATE, AND MEDICAL USE THEREOF” (Tuojie Biotech (Shanghai) Co., Ltd., priority 2023, dated 2024).
